# Reference: ChEMBL document CHEMBL3132854, “Synthesis and anticancer activity evaluation of resveratrolchalcone conjugates” (2014)
# Key:
# [1] = Growth inhibition of human NCI-ADR-RES cells assessed as cell growth at 10 uM by sulforhodamine B assay relative to control; values are per cent of control
# CAKI-1 [2] = assay: Growth inhibition of human CAKI-1 cells assessed as cell growth at 10 uM by sulforhodamine B assay relative to control; values are per cent of control
# [3] = Growth inhibition of human UO31 cells assessed as cell growth at 10 uM by sulforhodamine B assay relative to control; values are per cent of control; conditions: UO-31
# CAKI-1 [4] = assay: Cytotoxicity against human CAKI-1 cells by sulforhodamine B assay; type: functional
# NCI-H522 [5] = assay: Cytotoxicity against human NCI-H522 cells by sulforhodamine B assay; type: functional
# MDA-MB-468 = assay: Cytotoxicity against human MDA-MB-468 cells by sulforhodamine B assay; type: functional
# MDA-MB-435 = assay: Growth inhibition of human MDA-MB-435 cells assessed as cell growth at 10 uM by sulforhodamine B assay relative to control; values are per cent of control
# HT-29 = assay: Growth inhibition of human HT-29 cells assessed as cell growth at 10 uM by sulforhodamine B assay relative to control; values are per cent of control
# U-251 = assay: Growth inhibition of human U251 cells assessed as cell growth at 10 uM by sulforhodamine B assay relative to control; values are per cent of control
# NCI-H522 [6] = assay: Growth inhibition of human NCI-H522 cells assessed as cell growth at 10 uM by sulforhodamine B assay relative to control; values are per cent of control
# SK-OV-3 [7] = assay: Growth inhibition of human SKOV3 cells assessed as cell growth at 10 uM by sulforhodamine B assay relative to control; values are per cent of control
# MOLT-4 = assay: Growth inhibition of human MOLT4 cells assessed as cell growth at 10 uM by sulforhodamine B assay relative to control; values are per cent of control
# SF-295 = assay: Growth inhibition of human SF295 cells assessed as cell growth at 10 uM by sulforhodamine B assay relative to control; values are per cent of control
# ACHN = assay: Growth inhibition of human ACHN cells assessed as cell growth at 10 uM by sulforhodamine B assay relative to control; values are per cent of control
# OVCAR-3 = assay: Growth inhibition of human OVCAR3 cells assessed as cell growth at 10 uM by sulforhodamine B assay relative to control; values are per cent of control
# M14 = assay: Growth inhibition of human M14 cells assessed as cell growth at 10 uM by sulforhodamine B assay relative to control; values are per cent of control
# SW-620 = assay: Growth inhibition of human SW620 cells assessed as cell growth at 10 uM by sulforhodamine B assay relative to control; values are per cent of control
# A549 = assay: Growth inhibition of human A549/ATCC cells assessed as cell growth at 10 uM by sulforhodamine B assay relative to control; values are per cent of control
# SK-OV-3 [8] = assay: Cytotoxicity against human SKOV3 cells by sulforhodamine B assay; type: functional
# SR [9] = assay: Cytotoxicity against human SR cells by sulforhodamine B assay; type: functional
# SK-MEL-28 = assay: Growth inhibition of human SK-MEL-28 cells assessed as cell growth at 10 uM by sulforhodamine B assay relative to control; values are per cent of control
# SR [10] = assay: Growth inhibition of human SR cells assessed as cell growth at 10 uM by sulforhodamine B assay relative to control; values are per cent of control
# HCT-116 = assay: Growth inhibition of human HCT116 cells assessed as cell growth at 10 uM by sulforhodamine B assay relative to control; values are per cent of control
# SNB-19 = assay: Growth inhibition of human SNB19 cells assessed as cell growth at 10 uM by sulforhodamine B assay relative to control; values are per cent of control
# SN12C = assay: Growth inhibition of human SN12C cells assessed as cell growth at 10 uM by sulforhodamine B assay relative to control; values are per cent of control
# NCI-H23 = assay: Growth inhibition of human NCI-H23 cells assessed as cell growth at 10 uM by sulforhodamine B assay relative to control; values are per cent of control
# [11] = Growth inhibition of human HCC2998 cells assessed as cell growth at 10 uM by sulforhodamine B assay relative to control; values are per cent of control; conditions: HCC 2998
# A498 = assay: Growth inhibition of human A498 cells assessed as cell growth at 10 uM by sulforhodamine B assay relative to control; values are per cent of control
# KM12 = assay: Cytotoxicity against human KM12 cells by sulforhodamine B assay; type: functional
# NCI-H226 = assay: Growth inhibition of human NCI-H226 cells assessed as cell growth at 10 uM by sulforhodamine B assay relative to control; values are per cent of control
# BT-549 = assay: Growth inhibition of human BT549 cells assessed as cell growth at 10 uM by sulforhodamine B assay relative to control; values are per cent of control
# HOP-62 = assay: Cytotoxicity against human HOP62 cells by sulforhodamine B assay; type: functional
# SK-MEL-2 = assay: Growth inhibition of human SK-MEL-2 cells assessed as cell growth at 10 uM by sulforhodamine B assay relative to control; values are per cent of control
# [12] = read-out: LC50 (the source's name)
smiles,measurement,setting,value
COc1ccc(C(=O)/C=C/c2ccc(/C=C/c3cc(OC)c(OC)c(OC)c3)cc2)cc1,"growth, % of control at 10 µM",[1],50%
same,"growth, % of control at 10 µM",CAKI-1 [2],74.4%
same,"growth, % of control at 10 µM",[3],40.5%
same,GI50,CAKI-1 [4],14.6 µM
same,TGI,CAKI-1 [4],> 100 µM
same,CC50,CAKI-1 [4]; [12],> 100 µM
same,GI50,NCI-H522 [5],3.3 µM
same,TGI,NCI-H522 [5],30.7 µM
same,CC50,NCI-H522 [5]; [12],> 100 µM
same,GI50,MDA-MB-468,3.39 µM
same,TGI,MDA-MB-468,48.7 µM
same,CC50,MDA-MB-468; [12],> 100 µM
same,"growth, % of control at 10 µM",MDA-MB-435,41%
same,"growth, % of control at 10 µM",HT-29,36.2%
same,"growth, % of control at 10 µM",U-251,36.3%
same,"growth, % of control at 10 µM",NCI-H522 [6],5.55%
same,"growth, % of control at 10 µM",SK-OV-3 [7],102%
same,"growth, % of control at 10 µM",MOLT-4,9.62%
same,"growth, % of control at 10 µM",SF-295,57.9%
same,"growth, % of control at 10 µM",ACHN,68.1%
same,"growth, % of control at 10 µM",OVCAR-3,41.4%
same,"growth, % of control at 10 µM",M14,67%
same,"growth, % of control at 10 µM",SW-620,39.3%
same,"growth, % of control at 10 µM",A549,36.4%
same,GI50,SK-OV-3 [8],15.6 µM
same,TGI,SK-OV-3 [8],64.5 µM
same,CC50,SK-OV-3 [8]; [12],> 100 µM
same,GI50,SR [9],1.98 µM
same,TGI,SR [9],> 100 µM
same,CC50,SR [9]; [12],> 100 µM
same,"growth, % of control at 10 µM",SK-MEL-28,84.7%
same,"growth, % of control at 10 µM",SR [10],9.61%
same,"growth, % of control at 10 µM",HCT-116,17.5%
same,"growth, % of control at 10 µM",SNB-19,74.4%
same,"growth, % of control at 10 µM",SN12C,56.7%
same,"growth, % of control at 10 µM",NCI-H23,43.5%
same,"growth, % of control at 10 µM",[11],94.1%
same,"growth, % of control at 10 µM",A498,80%
same,GI50,KM12,3.75 µM
same,TGI,KM12,83.9 µM
same,CC50,KM12; [12],> 100 µM
same,"growth, % of control at 10 µM",NCI-H226,72.4%
same,"growth, % of control at 10 µM",BT-549,41.6%
same,GI50,HOP-62,1.28 µM
same,TGI,HOP-62,63.8 µM
same,CC50,HOP-62; [12],> 100 µM
same,"growth, % of control at 10 µM",SK-MEL-2,65.1%
COc1ccc(/C=C/c2ccc(/C=C/C(=O)c3ccc(Cl)cc3)cc2)cc1,"growth, % of control at 10 µM",[1],109%
same,"growth, % of control at 10 µM",CAKI-1 [2],92.4%
same,"growth, % of control at 10 µM",[3],80.7%
same,"growth, % of control at 10 µM",MDA-MB-435,95.3%
same,"growth, % of control at 10 µM",HT-29,93%
same,"growth, % of control at 10 µM",U-251,99.7%
same,"growth, % of control at 10 µM",NCI-H522 [6],106%
same,"growth, % of control at 10 µM",SK-OV-3 [7],102%
same,"growth, % of control at 10 µM",MOLT-4,92.5%
same,"growth, % of control at 10 µM",SF-295,87%
same,"growth, % of control at 10 µM",ACHN,110%
same,"growth, % of control at 10 µM",OVCAR-3,101%
same,"growth, % of control at 10 µM",M14,104%
same,"growth, % of control at 10 µM",SW-620,102%
same,"growth, % of control at 10 µM",A549,91.8%
same,"growth, % of control at 10 µM",SK-MEL-28,112%
same,"growth, % of control at 10 µM",SR [10],82.4%
same,"growth, % of control at 10 µM",HCT-116,93.3%
same,"growth, % of control at 10 µM",SNB-19,97.5%
same,"growth, % of control at 10 µM",SN12C,99.8%
same,"growth, % of control at 10 µM",NCI-H23,100%
same,"growth, % of control at 10 µM",[11],99.9%
same,"growth, % of control at 10 µM",A498,76%
same,"growth, % of control at 10 µM",NCI-H226,112%
same,"growth, % of control at 10 µM",BT-549,93.4%
same,"growth, % of control at 10 µM",SK-MEL-2,101%
COc1ccc(C(=O)/C=C/c2ccc(/C=C/c3ccc(Cl)cc3)cc2)cc1,"growth, % of control at 10 µM",[1],111%
same,"growth, % of control at 10 µM",CAKI-1 [2],93.9%
same,"growth, % of control at 10 µM",[3],102%
same,"growth, % of control at 10 µM",MDA-MB-435,103%
same,"growth, % of control at 10 µM",HT-29,104%
same,"growth, % of control at 10 µM",U-251,101%
same,"growth, % of control at 10 µM",NCI-H522 [6],125%
same,"growth, % of control at 10 µM",SK-OV-3 [7],99.3%
same,"growth, % of control at 10 µM",MOLT-4,92.6%
same,"growth, % of control at 10 µM",SF-295,96.5%
same,"growth, % of control at 10 µM",ACHN,94.6%
same,"growth, % of control at 10 µM",OVCAR-3,101%
same,"growth, % of control at 10 µM",M14,101%
same,"growth, % of control at 10 µM",SW-620,99.8%
same,"growth, % of control at 10 µM",A549,100%
same,"growth, % of control at 10 µM",SK-MEL-28,104%
same,"growth, % of control at 10 µM",SR [10],85.6%
same,"growth, % of control at 10 µM",HCT-116,97.5%
same,"growth, % of control at 10 µM",SNB-19,97.6%
same,"growth, % of control at 10 µM",SN12C,97.4%
same,"growth, % of control at 10 µM",NCI-H23,103%
same,"growth, % of control at 10 µM",[11],105%
same,"growth, % of control at 10 µM",A498,78.1%
same,"growth, % of control at 10 µM",NCI-H226,101%
same,"growth, % of control at 10 µM",BT-549,103%
same,"growth, % of control at 10 µM",SK-MEL-2,106%
COc1ccc(C(=O)/C=C/c2ccc(/C=C/c3ccc(F)cc3)cc2)cc1,"growth, % of control at 10 µM",[1],96.1%
same,"growth, % of control at 10 µM",CAKI-1 [2],91.2%
same,"growth, % of control at 10 µM",[3],94.4%
same,"growth, % of control at 10 µM",MDA-MB-435,98.9%
same,"growth, % of control at 10 µM",HT-29,104%
same,"growth, % of control at 10 µM",U-251,100%
same,"growth, % of control at 10 µM",NCI-H522 [6],84%
same,"growth, % of control at 10 µM",SK-OV-3 [7],99.1%
same,"growth, % of control at 10 µM",MOLT-4,96.2%
same,"growth, % of control at 10 µM",SF-295,94.9%
same,"growth, % of control at 10 µM",ACHN,102%
same,"growth, % of control at 10 µM",OVCAR-3,112%
same,"growth, % of control at 10 µM",M14,95.2%
same,"growth, % of control at 10 µM",SW-620,104%
same,"growth, % of control at 10 µM",A549,94.9%
same,"growth, % of control at 10 µM",SK-MEL-28,112%
same,"growth, % of control at 10 µM",SR [10],91%
same,"growth, % of control at 10 µM",HCT-116,95.8%
same,"growth, % of control at 10 µM",SNB-19,100%
same,"growth, % of control at 10 µM",SN12C,102%
same,"growth, % of control at 10 µM",NCI-H23,98.1%
same,"growth, % of control at 10 µM",[11],94.1%
same,"growth, % of control at 10 µM",A498,87.5%
same,"growth, % of control at 10 µM",NCI-H226,109%
same,"growth, % of control at 10 µM",BT-549,101%
same,"growth, % of control at 10 µM",SK-MEL-2,96.2%
